We go through two molecules from publication PMC3589550 (Nature structural & molecular biology, 2011).

Assay [1] concerns HAUSP TRAF domain. The experiment in a line: Competitive ITC: vIRF4^202–216 vs cellular substrate peptides on the TRAF domain. The assay is classed as binding.
Assay [2] concerns BJAB cells. The assay can be described thus: Immunoblot of p53 pathway proteins, BJAB. The assay is classed as cell-based. Conditions: 6 h. On the technique in general: Immunoblotting shows a protein as a band on a membrane.
Assay [3] addresses HAUSP TRAF domain (HAUSP^62–205) (Homo sapiens, UniProt Q93009). The assay is classed as binding. The settings on record: ITC.
Assay [4] concerns PEL cells. The assay can be described thus: Immunoblot of p53 and transcriptional targets, PEL cells. The assay is classed as cell-based. The settings on record: various PEL cells, 6 h.
The target in assay [5] is T1, HAUSP (Homo sapiens, UniProt Q93009). The assay can be described thus: In vitro deubiquitination. The assay is classed as biochemical.
T1 sequence (Q93009 whole entry): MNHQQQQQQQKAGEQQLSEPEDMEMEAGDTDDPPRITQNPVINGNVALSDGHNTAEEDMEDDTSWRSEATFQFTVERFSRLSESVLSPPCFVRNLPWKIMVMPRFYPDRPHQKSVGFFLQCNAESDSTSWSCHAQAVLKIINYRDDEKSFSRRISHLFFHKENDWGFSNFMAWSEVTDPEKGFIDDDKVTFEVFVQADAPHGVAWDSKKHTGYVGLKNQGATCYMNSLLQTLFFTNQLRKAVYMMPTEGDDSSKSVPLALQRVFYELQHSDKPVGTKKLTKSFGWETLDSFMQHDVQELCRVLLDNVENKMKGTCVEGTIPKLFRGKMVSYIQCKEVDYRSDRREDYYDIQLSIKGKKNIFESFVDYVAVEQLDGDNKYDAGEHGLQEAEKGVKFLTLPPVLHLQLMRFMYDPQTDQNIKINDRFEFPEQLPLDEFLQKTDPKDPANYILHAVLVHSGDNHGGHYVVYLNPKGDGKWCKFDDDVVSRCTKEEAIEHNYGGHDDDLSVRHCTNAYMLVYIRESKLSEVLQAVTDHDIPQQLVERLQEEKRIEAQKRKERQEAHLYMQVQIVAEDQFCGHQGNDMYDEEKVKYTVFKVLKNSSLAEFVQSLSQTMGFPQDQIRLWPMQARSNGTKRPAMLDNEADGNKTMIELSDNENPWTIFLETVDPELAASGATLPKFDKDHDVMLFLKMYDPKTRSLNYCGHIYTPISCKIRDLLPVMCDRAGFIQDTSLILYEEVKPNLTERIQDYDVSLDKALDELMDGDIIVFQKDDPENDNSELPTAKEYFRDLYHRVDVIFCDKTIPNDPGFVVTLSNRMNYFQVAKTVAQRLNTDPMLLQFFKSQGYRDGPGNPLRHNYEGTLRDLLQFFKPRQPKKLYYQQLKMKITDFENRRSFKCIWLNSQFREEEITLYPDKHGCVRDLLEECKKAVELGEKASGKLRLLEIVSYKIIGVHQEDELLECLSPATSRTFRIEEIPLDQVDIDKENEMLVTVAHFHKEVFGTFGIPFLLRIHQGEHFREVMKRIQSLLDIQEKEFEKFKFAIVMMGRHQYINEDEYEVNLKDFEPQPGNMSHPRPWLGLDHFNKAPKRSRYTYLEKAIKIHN
Assay [6] addresses T1, HAUSP. The experiment in a line: Co-IP / GST pull-down of HAUSP. Conditions: transfected 293T cells. The assay is classed as binding.
Assay [7] has as its target T1, HAUSP. The experiment in a line: In vitro DUB assay with ubiquitinated MDM2. The assay is classed as biochemical. Conditions: HAUSP preincubated with increasing concentrations of peptide.

Ends that are not written are not given here.

HAUSP TRAF domain (HAUSP^62–205), sequence (Q93009 62-205): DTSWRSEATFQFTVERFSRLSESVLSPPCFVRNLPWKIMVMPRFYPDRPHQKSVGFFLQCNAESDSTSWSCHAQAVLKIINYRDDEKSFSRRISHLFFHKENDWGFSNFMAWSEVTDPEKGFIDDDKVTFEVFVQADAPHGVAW

Regarding “DLVQELQEEKPSSSHL [MDM2^137–152, reference compound]”, the “association constant (Ka)” value in assay [1] (substrate peptide titrated into the HAUSP TRAF domain) is 91000 M⁻¹.
For `CC[C@H](C)[C@H](NC(=O)[C@H](Cc1c[nH]c2ccccc12)NC(=O)[C@@H](NC(=O)[C@@H](N)CO)C(C)C)C(=O)N1CCC[C@H]1C(=O)N[C@H](C(=O)N[C@@H](CC(N)=O)C(=O)N[C@@H](CCC(=O)O)C(=O)NCC(=O)N[C@@H](C)C(=O)N[C@@H](CO)C(=O)N[C@H](C(=O)N[C@@H](CO)C(=O)NCC(=O)N[C@@H](CCSC)C(=O)O)[C@@H](C)O)C(C)C` [vif1], the HAUSP levels entry in assay [2] and in assay [4] was “Neither the vif1 nor vif2 peptide treatment altered HAUSP levels” each time. The “TRAF binding affinity, in words” value in assay [3] is listed as “binds to the HAUSP TRAF domain with the highest affinity among all reported substrates”. The figures for the “observed association constant (Kobs)” value in assay [1] (vIRF4^202–216 titrated as competitor against MDM2^137–152), in assay [1] (vIRF4^202–216 titrated as competitor against p53^350–364) and in assay [1] (vIRF4^202–216 titrated as competitor against p53^355–369) were 1.09e+07 M⁻¹, 4.42e+07 M⁻¹ and 3.58e+07 M⁻¹, respectively. The “HAUSP enzymatic activity against K48-linked polyubiquitin chains” value in assay [5] (K48-linked polyubiquitin chains) was “ineffectiveness against K48-linked polyubiquitin chains”. For the same molecule, the “HAUSP DUB activity” value in assay [5] (purified HAUSP, K48- or K63-linked 3–7 polyubiquitin chains) is “minimally inhibited activity”. In addition, the “interaction with HAUSP” value in assay [6] is listed as “individually capable of interacting with HAUSP”. Besides, the “HAUSP DUB activity toward ubiquitinated MDM2” value in assay [7] is on record as “effectively blocked HAUSP DUB activity when ubiquitinated MDM2 was used as a substrate”.
